Where two headings read alike, the source gives them in different places.
Columns and labels:
[1] = Surface tension of aqueous solutions at 20° C.; type: physicochemical; conditions: (+0.3)
Description: (§1) The strong surface activity of the compounds encompassed by this invention is illustrated in particular by the strong lowering of the surface tension (γs) they cause when added to water, as shown by the examples of surface tensions (measured at 20° C. and expressed in milliNewton.meter^-1) and calculated spreading coefficients collected in the Table below: […]

[2] = Interfacial tension and spreading coefficient between water and perfluorodecalin; type: physicochemical; conditions: for γi (interfacial tension between water and perfluorodecalin): (+0.3), 56 mNm^-1 in the absence of surfactant; for Spreading Coef.: -56 mNm^-1 in the absence of surfactant
Description: as §1

[3] = Fluorocarbon (F-decalin) emulsions: average particle size and stability; type: physicochemical; conditions: for increase in average particle size: perfluorodecalin (50% w/v) emulsions, 2 or 3% w/v sole surfactant
Description: ^a Emulsions prepared by microfluidization.
Additional stable perfluorodecalin (50% w/v) emulsions based on the perfluoroalkylated phosphatidylcholines 11 or 12 (2 or 3% w/v) as the sole surfactant have been prepared by sonication.
^a Emulsions prepared by sonication
^b The emulsions are stored at 25° C.
^c The emulsions are stored at 50° C.
^a All the emulsions are prepared by microfluidization and stored at
The new perfluoroalkylated surfactants were solubilized or dispersed into water. Then the fluorocarbon was added under agitation. Any emulsification method like sonication can be used but mechanical procedures such as microfluidization or high pressure homogenization are preferred. The emulsion obtained can be used as an O2 carrier. The significant stabilization effect which can be obtained by incorporating the new F-alkyl surfactants is illustrated for various emulsion formulations (see Tables above).

[4] = Growth and viability of lymphoblastoid cell cultures of the Namalva strain; type: cell-based; conditions: human, namalva lymphoblastoid cells, control = 100%; for activity: read-out: Cell Culture Growth %; for viability: read-out: Cell Culture Viability %
mice = test: Injection into the tail vein of mice (deaths, growth); type: in vivo; conditions: 500 μl in NaCl 9%, 10 mice of 20-25g, observed for 35 days
[5] = Liposome preparation: average size and stability; type: physicochemical
Description: 1) Lipid 12 dissolved in chloroform was placed in a round bottom flask and the solvent evaporated by rotation under argon to produce a uniform film of dry lipid. Residual traces of chloroform were removed under vacuum (10^-3 mm Hg, 3 h). Dried lipid is suspended in HEPES buffer (10^-2 M,pH 7), vortexed for 5 ran., then probe sonicated (dial 7 on a Branson B30 sonifier, Power 4, Pulse 50, 3 mn.) 15° C. above phase transition temperature, to produce a clear bluish dispersion. Final concentration of 12 is 3% (w/v). Average size measurements were realised by light scattering on a Coulter Model N4SD, sub-Micron Particle Analyser: 0,12 μm.
2) Same dispersion procedure applied to powder lipid 12 produced a clear dispersion with an average particle size 0,12 μm.
Liposomes were observed by electronic microscopy after freeze-etching as unilamellar and multilamellar vesicles.

[6] = Table I, 3% compound (Ref.: 3% EYP), 50% w/v F-decalin, 1 month at 50° C.
[7] = Table I, 3% compound (Ref.: 3% EYP), 50% w/v F-decalin, microfluidization
[8] = Table III, 1% compound + 2% EYP (Ref.: 3% EYP), 20% w/v F-decalin, 1 month at 25° C.
[9] = Table III, 1% compound + 2% EYP (Ref.: 3% EYP), 20% w/v F-decalin, sonication
[10] = Table III, 1% compound + 2% EYP (Ref.: 3% EYP), 20% w/v F-decalin, sonication, stored at 25° C.
[11] = Table IV, 0.66% compound + 1.33% EYP, 100% w/v F-decalin, stored at 50° C.

| Structure (SMILES) | γs (surface tension) ([1]; 1 g/l in water) [mNm^-1] | γi (interfacial tension between water and perfluorodecalin) ([2]; 1 g/l in water) [mNm^-1] | Spreading Coef. ([2]; 1 g/l in water) [mNm^-1] | Relative Increase % (particle size) [3, 8] [%] | Average Particle Size After Preparation [3, 9] [μm] | Average Particle Size After 1 month [3, 10] [μm] | concentration of which injection caused no deaths and did not perturb the normal growth (mice) [µg/mL] | activity ([4]; 1 g/l in 9% of NaCl) [%] | viability ([4]; 1 g/l in 9% of NaCl) [%] | further results |
| --- | --- | --- | --- | --- | --- | --- | --- | --- | --- | --- |
| O=P(OCCC(F)(F)C(F)(F)C(F)(F)C(F)(F)C(F)(F)C(F)(F)F)(N1CCOCC1)N1CCOCC1 [Compound 1, [2-(F-hexyl)ethyl] dimorpholinophosphoramidate] | 22.5 | 2.0 | -1.6 | – | – | – | – | – | – | – |
| C[N+](C)(C)CCOP(=O)([O-])OCCC(F)(F)C(F)(F)C(F)(F)C(F)(F)C(F)(F)C(F)(F)C(F)(F)C(F)(F)F [Compound 5, [2-(F-octyl)ethyl] [2'-N,N,N trimethylamino ethyl] phosphate] | 23.0 | 4.5 | -4.6 | 100 | 0.15 | 0.29 | 1000 | – | – | emulsion stability (in words) ([3]; 50% w/v F-decalin emulsions, 1% surfactant where stated): remain stable at 50 °C for at least one month; Average Particle Size After Preparation ([3]; Table I, 1% compound (Ref.: 1% EYP), 50% w/v F-decalin, microfluidization): 0.48 μm; Relative Increase % (particle size) ([3]; Table I, 1% compound, 50% w/v F-decalin, 1 month at 50° C.): 14%; Average Particle Size After 1 month at 50° C. ([3]; Table I, 1% compound, 50% w/v F-decalin, microfluidization): 0.55 μm; Relative Increase % (particle size) [3, 6]: 50%; Average Particle Size After 1 month at 50° C. [3, 7]: 0.30 μm; Average Particle Size After Preparation [3, 7]: 0.20 μm; Average Particle Size After Preparation ([3]; Table IV, 0.66% compound + 1.33% EYP (Ref.: 2% EYP), 100% w/v F-decalin, microfluidization): 0.6 μm; Average Particle size After 3 months ([3]; Table IV, 0.66% compound + 1.33% EYP (Ref.: 2% EYP), 100% w/v F-decalin, stored at 50° C.): 1.1 μm; Average Particle size After 8 months [3, 11]: 1.35 μm; Relative Increase % (particle size) [3, 11]: 125%; activity ([4]; 10 g/l in 9% of NaCl): 96%; viability ([4]; 10 g/l in 9% of NaCl): 102% |
| COCCOP(=O)(OCCOC)OCC(COC(=O)CCCCCCCCCCC(F)(F)C(F)(F)C(F)(F)C(F)(F)C(F)(F)C(F)(F)F)OC(=O)CCCCCCCCCCC(F)(F)C(F)(F)C(F)(F)C(F)(F)C(F)(F)C(F)(F)F (racemic) [Compound 14, [1',2'-di [(11-F-hexyl)undecanoyl]rac-glyceryl] [di (2'-methoxy-ethyl)] phosphate] | – | – | – | – | – | – | 10000 | – | – | – |
| C[N+](C)(C)CCOP(=O)([O-])OCCCCCCCCCCCC(F)(F)C(F)(F)C(F)(F)C(F)(F)C(F)(F)C(F)(F)C(F)(F)C(F)(F)F [Compound 6, [11-(F-octyl)undecyl] [2'-N,N,N trimethylamino ethyl] phosphate] | 30.0 | 9.4 | -16.5 | 110 | 0.17 | 0.36 | 1000 | – | – | Relative Increase % (particle size) [3, 6]: 44%; Average Particle Size After 1 month at 50° C. [3, 7]: 0.36 μm; Average Particle Size After Preparation [3, 7]: 0.25 μm |
| C[N+](C)(C)CCOP(=O)([O-])OCC(COC(=O)CCCCCCCCCCC(F)(F)C(F)(F)C(F)(F)C(F)(F)C(F)(F)C(F)(F)F)OC(=O)CCCCCCCCCCC(F)(F)C(F)(F)C(F)(F)C(F)(F)C(F)(F)C(F)(F)F (racemic) [Compound 10, 1,2-di[(11-F-hexyl)undecaoyl] 3-[2'-(N,N,N-trimethylamino)ethyl] phosphoryl rac-glycerol] | – | – | – | – | – | – | 30000 | 99 | 95 | – |
| O=P(OCCCCCCCCCCCC(F)(F)C(F)(F)C(F)(F)C(F)(F)C(F)(F)C(F)(F)C(F)(F)C(F)(F)F)(N1CCOCC1)N1CCOCC1 [Compound 4, [11-(F-octyl)undecyl] dimorpholinohosphoramidate] | – | – | – | 50 | 0.26 | 0.39 | – | – | – | γs (surface tension) ([1]; 0.1 g/l in water): 22.5 mNm^-1; γi (interfacial tension between water and perfluorodecalin) ([2]; 0.1 g/l in water): 1.4 mNm^-1; Spreading Coef. ([2]; 0.1 g/l in water): -1.0 mNm^-1 |
| O=P(OCCC(F)(F)C(F)(F)C(F)(F)C(F)(F)C(F)(F)C(F)(F)C(F)(F)C(F)(F)F)(N1CCOCC1)N1CCOCC1 [Compound 2, [2-(F-octyl)ethyl] dimorpholinohosphoramidate] | 22.5 | 1.0 | -0.6 | – | – | – | – | 67 | 106 | – |
| O=P(OCCCCCCCCCCCC(F)(F)C(F)(F)C(F)(F)C(F)(F)C(F)(F)C(F)(F)F)(N1CCOCC1)N1CCOCC1 [Compound 3, [11-(F-hexyl)undecyl] dimorpholinohosphoramidate] | – | – | – | 50 | 0.26 | 0.39 | – | – | – | γs (surface tension) ([1]; 0.1 g/l in water): 24.4 mNm^-1; γi (interfacial tension between water and perfluorodecalin) ([2]; 0.1 g/l in water): 7.5 mNm^-1; Spreading Coef. ([2]; 0.1 g/l in water): -0.9 mNm^-1 |
| C[N+](C)(C)CCOP(=O)([O-])OCC(COCCCCCCCCCCCC(F)(F)C(F)(F)C(F)(F)C(F)(F)F)OCCCCCCCCCCCC(F)(F)C(F)(F)C(F)(F)C(F)(F)F (racemic) [Compound 13, 1,2-di [(11-F-butyl)undecyl] 3-[2'-(N,N,N-trimethylamino)ethylphosphoryl] rac-glycerol] | – | – | – | – | – | – | 60000 | 55 | 91 | – |
| C[N+](C)(C)CCOP(=O)([O-])OCC(COC(=O)CCCCCCCCCCC(F)(F)C(F)(F)C(F)(F)C(F)(F)F)OC(=O)CCCCCCCCCCC(F)(F)C(F)(F)C(F)(F)C(F)(F)F (racemic) [Compound 11, 1,2-di [(11-F-butyl)undecaoyl] 3-[2'-(N,N,N-trimethylamino)ethylphosphoryl] rac-glycerol] | – | – | – | – | – | – | 100000 | 60 | 83 | Relative Increase % (particle size) ([3]; Table III, 0.66% compound + 1.33% EYP (Ref.: 2% EYP), 50% w/v F-decalin, 1 month at 50° C.): 35%; Average Particle Size After Preparation ([3]; Table III, 0.66% compound + 1.33% EYP (Ref.: 2% EYP), 50% w/v F-decalin, sonication): 0.37 μm; Average Particle Size After 1 month ([3]; Table III, 0.66% compound + 1.33% EYP (Ref.: 2% EYP), 50% w/v F-decalin, sonication, stored at 50° C.): 0.50 μm; increase in average particle size ([3]; sonication): 10% |
| C[N+](C)(C)CCOP(=O)([O-])OCC(COC(=O)CCCCC(F)(F)C(F)(F)C(F)(F)C(F)(F)C(F)(F)C(F)(F)F)OC(=O)CCCCC(F)(F)C(F)(F)C(F)(F)C(F)(F)C(F)(F)C(F)(F)F (racemic) [Compound 12, 1,2-di [(11-F-hexyl)pentanoyl] 3-[2' -(N,N,N-trimethylamino)ethylphosphoryl] rac-glycerol] | – | – | – | – | – | – | 100000 | – | – | Average size of liposomes ([5]; 3% (w/v), from dried lipid film, HEPES buffer pH 7, probe sonicated, light scattering): 0,12 μm; average particle size of dispersion ([5]; same dispersion procedure applied to powder lipid): 0,12 μm; increase in average particle size ([3]; sonication): 10% |

— US5344930A, “Fluorine and phosphorous-containing amphiphilic molecules with surfactant properties” (Alliance Pharmaceutical Corp., priority 1993, dated 1994)
